Measurements reported in the supplement of paper PMC10307832.

Legend:
Assay in all cases: relative viability (nuclei count vs DMSO), 5 days (fraction); higher = more cells survive
NCI-H1915 = test system: NCI-H1915
In short: (§1)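 A single step with final 0.05% Triton X-100, 1% formaldehyde and 1 ug/ml Hoechst fixed the cells and stained nuclei 5 days after treatment. Lung cancer cell lines in 1536-well plates had been treated by pin tool the day after seeding with one drug alone or a fixed anchor-drug dose plus five library-drug doses (not always all listed) in √10 steps, and nuclei were counted on 4× images. Relative viability is the ratio of nuclei in treated wells to nuclei in vehicle wells, taken as the median of duplicate plates.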

NCI-H1993 = test system: NCI-H1993
In short: as §1

NCI-H2023 = test system: NCI-H2023
In short: as §1

NCI-H2085 = test system: NCI-H2085
In short: as §1

NCI-H2126 = test system: NCI-H2126
In short: as §1

NCI-H2347 = test system: NCI-H2347
In short: as §1

NCI-H650 = test system: NCI-H650
In short: as §1

NCI-H838 = test system: NCI-H838
In short: as §1

PC-14 = test system: PC-14
In short: as §1

SW 1573 = test system: SW 1573
In short: as §1

UMC-11 = test system: UMC-11
In short: as §1

COc1cc2nccc(Oc3ccc(NC(=O)Nc4cc(C)on4)c(Cl)c3)c2cc1OC [Tivozanib] + O=C(c1cc(Cc2n[nH]c(=O)c3ccccc23)ccc1F)N1CCN(C(=O)C2CC2)CC1 [Olaparib] (partner 8 µM)
relative viability (NCI-H1915; first compound 0.005 µM): 0.255 | relative viability (NCI-H1915; first compound 0.01581 µM): 0.279 | relative viability (NCI-H1915; first compound 0.05 µM): 0.286 | relative viability (NCI-H1915; first compound 0.1581 µM): 0.291 | relative viability (NCI-H1915; first compound 0.5 µM): 0.206 | relative viability (NCI-H1993; first compound 0.005 µM): 0.849 | relative viability (NCI-H1993; first compound 0.01581 µM): 1.03 | relative viability (NCI-H1993; first compound 0.05 µM): 0.988 | relative viability (NCI-H1993; first compound 0.1581 µM): 0.692 | relative viability (NCI-H1993; first compound 0.5 µM): 1.1 | relative viability (NCI-H2023; first compound 0.005 µM): 0.469 | relative viability (NCI-H2023; first compound 0.01581 µM): 0.476 | relative viability (NCI-H2023; first compound 0.05 µM): 0.454 | relative viability (NCI-H2023; first compound 0.1581 µM): 0.481 | relative viability (NCI-H2023; first compound 0.5 µM): 0.454 | relative viability (NCI-H2085; first compound 0.005 µM): 0.712 | relative viability (NCI-H2085; first compound 0.01581 µM): 0.848 | relative viability (NCI-H2085; first compound 0.05 µM): 0.876 | relative viability (NCI-H2085; first compound 0.1581 µM): 0.946 | relative viability (NCI-H2085; first compound 0.5 µM): 0.734 | relative viability (NCI-H2126; first compound 0.005 µM): 0.954 | relative viability (NCI-H2126; first compound 0.01581 µM): 0.907 | relative viability (NCI-H2126; first compound 0.05 µM): 1 | relative viability (NCI-H2126; first compound 0.1581 µM): 0.845 | relative viability (NCI-H2126; first compound 0.5 µM): 0.899 | relative viability (NCI-H2347; first compound 0.005 µM): 0.566 | relative viability (NCI-H2347; first compound 0.01581 µM): 0.65 | relative viability (NCI-H2347; first compound 0.05 µM): 0.608 | relative viability (NCI-H2347; first compound 0.1581 µM): 0.638 | relative viability (NCI-H2347; first compound 0.5 µM): 0.512 | relative viability (NCI-H650; first compound 0.005 µM): 0.321 | relative viability (NCI-H650; first compound 0.01581 µM): 0.359 | relative viability (NCI-H650; first compound 0.05 µM): 0.42 | relative viability (NCI-H650; first compound 0.1581 µM): 0.401 | relative viability (NCI-H650; first compound 0.5 µM): 0.323 | relative viability (NCI-H838; first compound 0.005 µM): 0.785 | relative viability (NCI-H838; first compound 0.01581 µM): 0.785 | relative viability (NCI-H838; first compound 0.05 µM): 0.825 | relative viability (NCI-H838; first compound 0.1581 µM): 0.828 | relative viability (NCI-H838; first compound 0.5 µM): 0.773 | relative viability (PC-14; first compound 0.005 µM): 0.28 | relative viability (PC-14; first compound 0.01581 µM): 0.316 | relative viability (PC-14; first compound 0.05 µM): 0.262 | relative viability (PC-14; first compound 0.1581 µM): 0.376 | relative viability (PC-14; first compound 0.5 µM): 0.306 | relative viability (SW 1573; first compound 0.005 µM): 0.443 | relative viability (SW 1573; first compound 0.01581 µM): 0.416 | relative viability (SW 1573; first compound 0.05 µM): 0.434 | relative viability (SW 1573; first compound 0.1581 µM): 0.506 | relative viability (SW 1573; first compound 0.5 µM): 0.446 | relative viability (UMC-11; first compound 0.005 µM): 0.373 | relative viability (UMC-11; first compound 0.01581 µM): 0.393 | relative viability (UMC-11; first compound 0.05 µM): 0.456 | relative viability (UMC-11; first compound 0.1581 µM): 0.33 | relative viability (UMC-11; first compound 0.5 µM): 0.415
